This passage reports glass transition temperature results from the PolyMetriX glass transition set.

Molecule `*/C=C(/*)CCCOC(=O)c1cc(-c2ccc(OC)cc2)ccc1-c1ccc(OC)cc1` (repeat unit) came in with a glass transition temperature of 72.40 °C. Molecule `*/N=N/c1ccc(C(=O)NCCCCNC(=O)c2ccc(*)cc2)cc1` (repeat unit) came in with a glass transition temperature of 215.00 °C. Then `*C(=O)NC1CCC(CC2CCC(NC(=O)c3ccc(N4C(=O)c5ccc(*)cc5C4=O)cc3)CC2)CC1` (repeat unit), with 275.00 °C. Next, `*C(=O)NCCCCCCNC(=O)c1ccc(N2C(=O)c3ccc(*)cc3C2=O)cc1` (repeat unit): 225.00 °C; `*C(=O)NCCN(CCNC(=O)c1ccc(N2C(=O)c3ccc(*)cc3C2=O)cc1)c1ccc(/C=C/c2ccc([N+](=O)[O-])cc2)cc1` (repeat unit): 178.00 °C; `*C(=O)NCCNC(=O)c1ccc(N2C(=O)c3ccc(*)cc3C2=O)cc1` (repeat unit): 235.00 °C. Then `*C(=O)NNC(=O)c1ccc([Si](c2ccccc2)(c2ccccc2)c2ccc(C(=O)NNC(=O)c3ccc(*)o3)cc2)cc1` (repeat unit), with 252.00 °C. Molecule `*C(=O)Nc1ccc(C)cc1N1C(=O)CC(N2C(=O)c3ccc(*)cc3C2=O)C1=O` (repeat unit) registered a glass transition temperature of 237.00 °C. On to `*C(=O)Nc1ccc(NC(=O)c2ccc3c(c2)C(=O)N(c2ccc(Oc4ccc(N5C(=O)c6ccc(*)cc6C5=O)cc4)cc2)C3=O)c(OCCCCCCS(=O)(=O)c2ccc(/C=C/c3ccc(N(C)C)cc3)cc2)c1` (repeat unit), for which the glass transition temperature was 192.00 °C.

With `*C(=O)c1cc(C(=O)c2ccc3c(c2)C(=O)N(c2cccc(N4C(=O)c5ccc(*)cc5C4=O)c2)C3=O)cc(-c2ccccc2)c1` (repeat unit), the glass transition temperature amounted to 266.50 °C. Molecule `*C/C=C/COC(=O)NCCCCCCNC(=O)O*` (repeat unit) displayed a glass transition temperature of -39.00 °C.

Take `*CC(F)(F)C(F)(F)C(F)(F)COC(=O)NCC(F)(F)C(F)(F)C(F)(F)C(F)(F)CNC(=O)O*` (repeat unit): the glass transition temperature is 25.00 °C. Then `*CC(F)(F)C(F)(F)COC(=O)NCCCCCCNC(=O)O*` (repeat unit), with 9.00 °C; and `*CCCCCCCCCCCCCCCCOC(=O)NCCCCCCNC(=O)O*` (repeat unit), with 39.00 °C. Then `*CCCCCCCCCCCCCCCCOC(=O)NCc1ccc(CNC(=O)O*)cc1` (repeat unit), with 47.00 °C; and `*CCCCCCCCCCCCCCNC(=O)NCCCCCCCCCCNC(=O)N*` (repeat unit), with 40.00 °C; and `*CCCCCCCCCCCCCCNC(=O)NCc1ccc(CNC(=O)N*)cc1` (repeat unit), with 54.00 °C.

With `*CCCCCCCCCCCCNC(=O)c1ccc(C(=O)N*)cc1` (repeat unit), the glass transition temperature turned out to be 130.00 °C.

For the molecule `*CCCCCCCCCCNC(=O)NCc1ccc(CNC(=O)N*)cc1` (repeat unit), the glass transition temperature worked out at 55.00 °C.

Molecule `*CCCCCCCCCNC(=S)N*` (repeat unit) returned a glass transition temperature of 48.00 °C. With `*CCCCCCCCCOC(=O)NCCCCCCNC(=O)O*` (repeat unit), the glass transition temperature was found to be 58.00 °C.

`*CCCCCCCCNC(=O)NCc1ccc(CNC(=O)N*)cc1` (repeat unit) displayed a glass transition temperature of 68.00 °C. Then `*CCCCCCCCNC(=O)c1ccc(C(=O)N*)c(Sc2ccccc2)c1` (repeat unit), with 110.00 °C; and `*CCCCCCCCNC(=O)c1ccc(C(=O)N*)cc1` (repeat unit), with 123.00 °C; and `*CCCCCCCCNC(=O)c1cccc(C(=O)N*)c1` (repeat unit), with 110.00 °C. Then `*CCCCCCCNC(=O)N*` (repeat unit), with 62.00 °C; and `*CCCCCCNC(=O)c1ccc(C(=O)N*)c(Oc2ccc(Br)cc2)c1` (repeat unit), with 116.00 °C. Next, `*CCCCCCNC(=O)c1ccc(C(=O)N*)c(Oc2ccc(F)cc2)c1` (repeat unit): 113.00 °C; `*CCCCCCNC(=O)c1ccc(C(=O)N*)c(Oc2ccccc2)c1` (repeat unit): 108.00 °C.

For the molecule `*CCCCCCNC(=O)c1ccc(C(=O)N*)c(Sc2ccccc2)c1` (repeat unit), the glass transition temperature stood at 121.00 °C. Molecule `*CCCCCCOC(=O)NCC(F)(F)C(F)(F)C(F)(F)C(F)(F)CNC(=O)O*` (repeat unit) came in with a glass transition temperature of 5.00 °C.

In the case of `*CCCCCCOC(=O)NCCCCCCNC(=O)O*` (repeat unit), the glass transition temperature was found to be 168.00 °C. Next, `*CCCCCNC(=O)c1ccc(C(=O)N*)cc1` (repeat unit): 177.00 °C; `*CCCCCNc1nc(NCCCCCc2nc3cc(-c4ccc5[nH]c(*)nc5c4)ccc3[nH]2)nc(N(CC)CC)n1` (repeat unit): 190.00 °C. Then `*CCCCCOC(=O)NCCCCCCNC(=O)O*` (repeat unit), with 33.00 °C; and `*CCCCCOC(=O)c1ccccc1C(=O)[O][Pb][O]C(=O)c1ccccc1C(=O)OCCCCCOC(=O)NCCCCCCNC(=O)O*` (repeat unit), with -19.20 °C.

The molecule `*CCCCNC(=O)C(=O)N*` (repeat unit) gave a glass transition temperature of 120.00 °C.

Regarding `*CCCCOC(=O)NCC(F)(F)C(F)(F)C(F)(F)C(F)(F)CNC(=O)O*` (repeat unit), the glass transition temperature stood at 33.00 °C. `*CCCCOC(=O)NCCCCCCNC(=O)O*` (repeat unit) yielded a glass transition temperature of 33.50 °C. Molecule `*CCCCOC(=O)NCCCCNC(=O)O*` (repeat unit) registered a glass transition temperature of 7.00 °C. On to `*CCCOC(=O)NCCCCCCNC(=O)O*` (repeat unit), for which the glass transition temperature was determined as 55.00 °C. Next, `*CCN(CCOC(=O)NCCCCCCNC(=O)O*)c1ccccc1` (repeat unit): 31.90 °C. As to `*CCNC(=O)Nc1ccc(Cc2ccc(NC(=O)NCCOCCO*)cc2)cc1` (repeat unit), the glass transition temperature is 8.00 °C. The molecule `*CCOC(=O)NCCCCCCCCCNC(=O)O*` (repeat unit) returned a glass transition temperature of 44.00 °C.

Turning to `*CCOCCOCCOCCOCCOCCOC(=O)NCCCCCCNC(=O)O*` (repeat unit), the glass transition temperature was -31.00 °C. `*COC(=O)NCCCCCCNC(=O)OCc1ccc(*)o1` (repeat unit) had a glass transition temperature of 33.00 °C. `*NC(=O)NCCCCCCNC(=O)Nc1cccc(*)n1` (repeat unit) came in with a glass transition temperature of 170.00 °C. Next, `*NC(C)(CC)C(*)=O` (repeat unit): 74.2 °C; `*NC(CCC(=O)Nc1ccc(N(c2ccccc2)c2ccccc2)cc1)C(*)=O` (repeat unit): 132.00 °C; `*NC(CCC(=O)OCCC)C(*)=O` (repeat unit): -10.00 °C. On to `*NC(CCC(=O)OCCCC)C(*)=O` (repeat unit), for which the glass transition temperature was -15.00 °C.

Molecule `*NC(CCC(=O)OCCCCCCCCCC)C(*)=O` (repeat unit) returned a glass transition temperature of -62.00 °C. Next, `*NNC(=O)c1ccc(C(=O)NNC(=O)c2ccc([Si](c3ccccc3)(c3ccccc3)c3ccc(C(*)=O)cc3)cc2)c2ccccc12` (repeat unit): 270.00 °C; `*Nc1cc(NC(=O)c2cccc(C(*)=O)c2)cc(C(=O)Oc2ccc(Oc3ccc(C#N)c(C#N)c3)cc2)c1` (repeat unit): 305.00 °C; `*Nc1ccc(Cc2ccc(NC(=O)NCCCCCCCCCCCCNC(*)=O)cc2)cc1` (repeat unit): 51.00 °C. Next, `*Nc1ccc(Cc2ccc(NC(=O)NCCCCCCNC(*)=O)cc2)cc1` (repeat unit): 78.00 °C. Next, `*Nc1cccc(NC(=O)c2cccc(C(=O)Nc3ccc(C(=O)NC(*)=S)cc3)c2)c1` (repeat unit): 270.00 °C; `*Nc1cccc2c(N[Se]*)cccc12` (repeat unit): 53.00 °C; `*[O][Zn][O]C(=O)c1ccccc1C(=O)OCCCCCOC(=O)NCCCCCCNC(=O)OCCCCCOC(=O)c1ccccc1C(*)=O` (repeat unit): -4.30 °C. `*Oc1cc(C(C)(C)C)c(Oc2ccc(C(=O)Nc3c(C)cc(Cc4cc(C)c(NC(=O)c5ccc(*)cc5)c(C(C)C)c4)cc3C(C)C)cc2)cc1C(C)(C)C` (repeat unit) displayed a glass transition temperature of 260.00 °C. `*Oc1ccc(/N=C/C=N/c2ccc(OC(=O)NCCCCCCNC(*)=O)cc2)cc1` (repeat unit) yielded a glass transition temperature of 80.00 °C. Next, `*Oc1ccc(C(*)=O)cc1CCCCC` (repeat unit): 50.00 °C; `*Oc1ccc(C2(c3ccc(Oc4c(F)c(F)c(C(=O)c5c(F)c(F)c(*)c(F)c5F)c(F)c4F)cc3)c3ccccc3-c3ccccc32)cc1` (repeat unit): 223.00 °C.

`*Oc1ccc(S(=O)(=O)c2ccc(Oc3ccc(C(=O)c4cc(I)cc(C(=O)c5ccc(*)cc5)c4)cc3)cc2)cc1` (repeat unit) came in with a glass transition temperature of 203.00 °C. Then `*Oc1cccc(OC(=O)c2cc(OCCCCC)cc(C(*)=O)c2)c1` (repeat unit), with 96.00 °C; and `*Oc1ccccc1C(=O)OC(=O)c1ccccc1OC(=O)C(CC)C(CC)C(*)=O` (repeat unit), with 23.00 °C; and `*c1ccc(C(=O)NCCCCCCCCNC(=O)c2ccc(-c3nc4ccccc4nc3*)cc2)cc1` (repeat unit), with 185.00 °C.

As to `*c1ccc(C(=O)NNC(=O)c2ccc(C(=O)NNC(=O)c3ccc(C4(*)OC(=O)c5ccccc54)cc3)cc2)cc1` (repeat unit), the glass transition temperature came to 237.00 °C.

`*c1cccc(S(=O)(=O)NCCCCCNS(*)(=O)=O)c1` (repeat unit) showed a glass transition temperature of 74.00 °C.

`*c1cccc(S(=O)(=O)NCCNS(*)(=O)=O)c1` (repeat unit) registered a glass transition temperature of 107.00 °C.
